Assay results from US20260130933A1, “PHARMACEUTICAL COMPOSITION FOR PREVENTION OR TREATMENT OF NEPHROPATHY AND/OR DIABETES MELLITUS, COMPRISING ENAVOGLIFLOZIN” (DAEWOONG PHARMACEUTICAL CO., LTD., priority 2022, published 2026).

Assay: Example 3: phase 3 trial, enavogliflozin 0.3 mg vs dapagliflozin 10 mg once a day for 24 weeks added to metformin and gemigliptin in patients with type 2 diabetes (same endpoints, rescue drug)
Assay type: in vivo, human
Conditions: week 24
Method: 1) when Metformin (≥1,000 mg/Day) was Administered at a Constant Dose for at Least 8 Weeks Prior to Pre-Visit (Pre-Screening) • Metformin (≥1,000 mg/day) and gemigliptin (50 mg/day) were co-administered during the 8-week stabilization period. […] 4) when Metformin (≥1,000 mg/Day) and Gemigliptin (50 mg/Day) were Co-Administered at Constant Doses for at Least 8 Weeks Prior to Pre-Visit (Prescreening) • Without a separate stabilization period, Pre-visit (pre-screening) was Visit 1 (screening).
Subjects who met the inclusion/exclusion criteria continued to receive metformin and gemigliptin while receiving a placebo of the clinical trial drug in a single-blind (subject-blinded) state for a 2-week run-in period.
Here, the randomized subjects were stratified according to the administration therapy (co-administration with two or less agents (one or two agents) or three or more agents) of a conventional hypoglycemic agent (before washout of another hypoglycemic agent) within 24 weeks prior to obtaining written informed consent and by an HbA1c value (<8% or ≥8%) at Visit 1 (screening) measured in the central laboratory.
The randomized subjects were administered two tablets of the clinical trial drug corresponding to each administration group once a day, and then visited the institution at weeks 6, 12, 18, and 24 during the 24-week administration period to conduct efficacy and safety assessments. In addition, during the clinical trial period, they were instructed to exercise regularly and control their diet without changing their daily life patterns.
• 1) Change in HbA1c at week 24 after administration of clinical trial drug compared to Visit 2 (randomization)
• 1) Change in HbA1c at each time point of weeks 6, 12, and 18 after administration of clinical trial drug compared to Visit 2 (randomization) • 2) Change in FPG at each time point of weeks 6, 12, 18, and 24 after administration of clinical trial drug compared to Visit 2 (randomization) • 3) Proportion of subjects achieving HbA1c<7% at each time point of weeks 6, 12, 18, and 24 after administration of clinical trial drug • 4) Proportion of subjects achieving HbA1c<6.5% at each time point of weeks 6, 12, 18, and 24 after administration of clinical trial drug • 5) Proportion of subjects achieving therapeutic response (HbA1c change (HbA1c at Visit 2—HbA1c at each evaluation time point)>0.5% or HbA1c<7% at each evaluation time point compared to Visit 2 (randomization)) at each time point of weeks 6, 12, 18, and 24 after administration of clinical trial drug • 6) Proportion of subjects achieving therapeutic response (HbA1c change (HbA1c at Visit 2—HbA1c at each evaluation time point)>0.7% or HbA1c<7% at each evaluation time point compared to Visit 2 (randomization)) at each time point of weeks 6, 12, 18, and 24 after administration of clinical trial drug • 7) Proportion of subjects achieving therapeutic response (HbA1c change (HbA1c at Visit 2—HbA1c at each evaluation time point)>1% or HbA1c<7% at each evaluation time point compared to Visit 2 (randomization)) at each time point of weeks 6, 12, 18, and 24 after administration of clinical trial drug

[1] = modified per-protocol set 2, enavogliflozin 0.3 mg, dapagliflozin 10 mg
[2] = per-protocol set, enavogliflozin 0.3 mg vs dapagliflozin 10 mg
[3] = per-protocol set, enavogliflozin 0.3 mg, dapagliflozin 10 mg

Compound: OC[C@H]1O[C@@H](c2cc(Cc3ccc(C4CC4)cc3)c(Cl)c3c2CCO3)[C@H](O)[C@@H](O)[C@@H]1O [Enavogliflozin, (2S,3R,4R,5S,6R)-2-(7-chloro-6 (4-cyclopropylbenzyl)-2,3-dihydrobenzofuran-4-yl)-6-(hydroxymethyl)tetrahydro-2H-pyran-3,4,5-triol]
- Change from baseline in diastolic blood pressure, Median (modified per-protocol set 2): −3.00 mmHg
- Diastolic blood pressure, Mean (modified per-protocol set 2): 73.40 mmHg
- Diastolic blood pressure, Median (modified per-protocol set 2): 73.50 mmHg
- Change from baseline in systolic blood pressure, ANCOVA LS mean difference (modified per-protocol set 2, enavogliflozin 0.3 mg vs dapagliflozin 10 mg): −0.22 mmHg
- Change from baseline in systolic blood pressure, ANCOVA LS mean [1]: −4.49 mmHg
- Change from baseline in systolic blood pressure, Mean [1]: −5.20 mmHg
- Change from baseline in systolic blood pressure, Median [1]: −5.00 mmHg
- Systolic blood pressure, Mean [1]: 122.29 mmHg
- Systolic blood pressure, Median [1]: 121.00 mmHg
- Adiponectin, Mean (per-protocol set): 7.62 µg/mL
- Adiponectin, Median (per-protocol set): 6.49 µg/mL
- Change from baseline in HOMA-IR, ANCOVA LS mean (per-protocol set): −1.09
- Change from baseline in HOMA-IR, LS mean difference (enavogliflozin − dapagliflozin) (per-protocol set): −0.16
- Change from baseline in HOMA-IR, Mean (per-protocol set): −1.07
- Change from baseline in HOMA-IR, Median (per-protocol set): −0.80
- Change from baseline in HOMA-β, ANCOVA LS mean (per-protocol set): 1.09
- Change from baseline in HOMA-β, LS mean difference (enavogliflozin − dapagliflozin) (per-protocol set): −4.69
- Change from baseline in HOMA-β, Mean (per-protocol set): 2.57
- Change from baseline in HOMA-β, Median (per-protocol set): 5.70
- Change from baseline in UACR, ANCOVA LS mean (per-protocol set): -15.34 g/kg
- Change from baseline in UACR, LS mean difference (enavogliflozin − dapagliflozin) (per-protocol set): 0.79 g/kg
- Change from baseline in UACR, Mean (per-protocol set): -19.52 g/kg
- Change from baseline in UACR, Median (per-protocol set): -1.55 g/kg
- Change from baseline in UGCR, ANCOVA LS mean (per-protocol set): 60.22 mg/mg
- Change from baseline in UGCR, LS mean difference (enavogliflozin − dapagliflozin) (per-protocol set): 16.71 mg/mg
- Change from baseline in UGCR, Mean (per-protocol set): 59.39 mg/mg
- Change from baseline in UGCR, Median (per-protocol set): 55.98 mg/mg
- Change from baseline in adiponectin, ANCOVA LS mean (per-protocol set): 1.42 µg/mL
- Change from baseline in adiponectin, LS mean difference (enavogliflozin − dapagliflozin) (per-protocol set): 0.49 µg/mL
- Change from baseline in adiponectin, Mean (per-protocol set): 1.39 µg/mL
- Change from baseline in adiponectin, Median (per-protocol set): 1.11 µg/mL
- Change from baseline in leptin, ANCOVA LS mean (per-protocol set): -1.46 ng/mL
- Change from baseline in leptin, LS mean difference (enavogliflozin − dapagliflozin) (per-protocol set): -0.89 ng/mL
- Change from baseline in leptin, Mean (per-protocol set): -1.52 ng/mL
- Change from baseline in leptin, Median (per-protocol set): -0.91 ng/mL
- HOMA-IR (insulin resistance), Mean (per-protocol set): 1.84
- HOMA-IR (insulin resistance), Median (per-protocol set): 1.56
- HOMA-β (beta-cell function), Mean (per-protocol set): 45.48
- HOMA-β (beta-cell function), Median (per-protocol set): 41.40
- Leptin, Mean (per-protocol set): 8.95 ng/mL
- Leptin, Median (per-protocol set): 6.03 ng/mL
- UACR, Mean (per-protocol set): 27.90 g/kg
- UACR, Median (per-protocol set): 11.10 g/kg
- UGCR, Mean (per-protocol set): 60.12 mg/mg
- UGCR, Median (per-protocol set): 57.96 mg/mg
- Achieving HbA1c target of <6.5%, odds ratio (logistic regression model) [2]: 1.27
- Achieving HbA1c target of <7%, odds ratio (logistic regression model) [2]: 1.17
- Change from baseline in FPG, ANCOVA LS mean difference [2]: -3.49 mg/dL
- Change from baseline in body weight, ANCOVA LS mean difference [2]: -0.15 kg
- Change from baseline in fasting C-peptide, ANCOVA LS mean difference [2]: -0.01 ng/mL
- Therapeutic glycemic response 1, odds ratio (logistic regression model) [2]: 1.15
- Therapeutic glycemic response 2, odds ratio (logistic regression model) [2]: 0.98
- Therapeutic glycemic response 3, odds ratio (logistic regression model) [2]: 1.22
- Body weight, Mean [3]: 66.19 kg
- Change from baseline in FPG, ANCOVA LS mean [3]: -27.21 mg/dL
- Change from baseline in FPG, Mean [3]: -26.31 mg/dL
- Change from baseline in FPG, Median [3]: -20.00 mg/dL
- Change from baseline in body weight, ANCOVA LS mean [3]: -3.15 kg
- Change from baseline in body weight, Mean [3]: -3.09 kg
- Change from baseline in body weight, Median [3]: -3.00 kg
- Change from baseline in fasting C-peptide, ANCOVA LS mean [3]: -0.09 ng/mL
- Change from baseline in fasting C-peptide, Mean [3]: -0.09 ng/mL
- Change from baseline in fasting C-peptide, Median [3]: -0.07 ng/mL
- FPG, Mean [3]: 113.03 mg/dL
- FPG, Median [3]: 110.00 mg/dL
- Fasting C-peptide, Mean [3]: 0.64 ng/mL
- Fasting C-peptide, Median [3]: 0.63 ng/mL
- Subjects achieving HbA1c target of <6.5%, (%) [3]: 21.01%
- Subjects achieving HbA1c target of <7%, % [3]: 66.39%
- body weight, Median [3]: 65.10 kg
- Subjects achieving therapeutic glycemic response 1, % (per-protocol set, response 1 = HbA1c change >0.5% or HbA1c <7%, enavogliflozin 0.3 mg, dapagliflozin 10 mg): 86.55%
- Subjects achieving therapeutic glycemic response 2, % (per-protocol set, response 2 = HbA1c change >0.7% or HbA1c <7%, enavogliflozin 0.3 mg, dapagliflozin 10 mg): 81.51%
- Subjects achieving therapeutic glycemic response 3, % (per-protocol set, response 3 = HbA1c change >1% or HbA1c <7%, enavogliflozin 0.3 mg, dapagliflozin 10 mg): 78.15%
